Tests used:
Type in all cases: in vivo
[1] = system: Coptotermes formosanus Shiraki; test: Test Example 3: extirpation test with dust formulation using simulated termite trails
[2] = system: Coptotermes formosanus Shiraki; test: Test Example 2: primary transmission treatment effect
Description: (§1) A test agent solution containing 0.023 parts of dicloromezotiaz was prepared by adding 99.875 parts of water to 0.125 parts of the aqueous suspension composition shown in Formulation Example 1. As comparative examples, four types of commercially available neonicotinoid termite controlling agents and four types of slow-acting termite controlling agents shown in Table 2 were diluted with water at practical concentrations to prepare test agent solutions. The “agent concentration (%)” indicates the concentration of the active ingredient contained in each of the composition of the present invention and the termite controlling agents and the “test agent solution concentration (%)” indicates the concentration of the active ingredient in each of the prepared test agent solutions.
(§2) After 1.2 g of each of the test agent solutions of the example and the comparative examples diluted to a predetermined concentration and prepared was added to 4.8 g of soil, 6 g of the mixed soil was spread in a glass petri dish having a diameter of 50 mm and ten workers of Coptotermes formosanus Shiraki were released into the petri dish and exposed to the agent solution for 4 hours.

[3] = system: Coptotermes formosanus Shiraki; test: Test Example 2: secondary transmission treatment effect
Description: as §1, §2

[4] = system: Coptotermes formosanus Shiraki; test: Test Example 1: effect of agent on gypsum treated with test agent solution; conditions: dicloromezotiaz 0.023%, imidacloprid 0.1%, fipronil 0.03% test agent solution on gypsum
Description: A test agent solution containing 0.023 parts of dicloromezotiaz was prepared by adding 99.875 parts of water to 0.125 parts of the aqueous suspension composition shown in Formulation Example 1.
In a comparative example, an aqueous suspension composition prepared by adding an agent solution, wherein 99 parts of water was added to 1 part of a flowable containing 10.0 parts of imidacloprid and which contained 0.1 parts of imidacloprid and a drug solution, wherein 299 parts of water was added to 1 part of a flowable containing 9.1 parts of fipronil and which contained 0.03 parts of fipronil, uniformly mixing same was used as a test agent solution of a comparative example.
As the imidacloprid formulation and the fipronil formulation, commercially available termite controlling agents were used and diluted solutions at practical agent concentrations thereof were used as test agent solutions.
Gypsum was cured and spread in a glass petri dish having a diameter of 90 mm, 15 ml of each of the test agent solution of the example and the test agent solution of the comparative example was uniformly dropped on the entire surface of the gypsum. Thereafter, ten workers of Coptotermes formosanus Shiraki were released into the petri dish and the petri dish was covered and left to stand in a thermostatic chamber (25° C./relative humidity 60%).
The number of abnormal termites and the number of dead termites among the released termites (Coptotermes formosanus Shiraki) were observed every one hour from immediately after the release of the termites (Coptotermes formosanus Shiraki) until ten hours passed and the total number of the abnormal termite rate and the dead termite rate was calculated as the abnormal or dead termite rate (%) according to [Expression 1] below and the rates of expression of the effects of the respective agents were compared. Each test agent was prepared in one petri dish as one plot and the test was carried out in two replicates.

Measured: Abnormal or dead termite rate (%)

Cc1cccn2c(=O)c(-c3cc(Cl)cc(Cl)c3)c([O-])[n+](Cc3cnc(Cl)s3)c12 [Dicloromezotiaz, dicloromezotiaz]
84%: [3]; after 21 days, Table 6, dicloromezotiaz 0.023%, chlorfenapyr 0.11%, clothianidin 0.05%, dinotefuran 0.20%, thiamethoxam 0.10%, broflanilide 0.03% solution in soil
83%: [3]; after 3 days, Table 5, dicloromezotiaz 0.023%, fipronil 0.03%, imidacloprid 0.10%, chlorantraniliprole 0.05% solution in soil
88%: [3]; after 7 days, Table 6, dicloromezotiaz 0.023%, chlorfenapyr 0.11%, clothianidin 0.05%, dinotefuran 0.20%, thiamethoxam 0.10%, broflanilide 0.03% solution in soil | [3]; after 14 days, Table 6, dicloromezotiaz 0.023%, chlorfenapyr 0.11%, clothianidin 0.05%, dinotefuran 0.20%, thiamethoxam 0.10%, broflanilide 0.03% solution in soil
37%: [4]; time elapsed 7 h
30%: [1]; active ingredient concentration 1%, 2 h
35%: [1]; active ingredient concentration 0.10%, 5 h
85%: [1]; active ingredient concentration 0.10%, 1 day | [1]; active ingredient concentration 1%, 3 h | [1]; active ingredient concentration 1%, 4 h
60%: [1]; active ingredient concentration 0.25%, 5 h
44%: [3]; after 3 days, Table 6, dicloromezotiaz 0.023%, chlorfenapyr 0.11%, clothianidin 0.05%, dinotefuran 0.20%, thiamethoxam 0.10%, broflanilide 0.03% solution in soil
45%: [1]; active ingredient concentration 0.5%, 3 h | [1]; active ingredient concentration 0.5%, 4 h
2.2%: [3]; after 1 day, Table 6, dicloromezotiaz 0.023%, chlorfenapyr 0.11%, clothianidin 0.05%, dinotefuran 0.20%, thiamethoxam 0.10%, broflanilide 0.03% solution in soil
25%: [1]; active ingredient concentration 0.10%, 4 h | [1]; active ingredient concentration 0.25%, 3 h | [1]; active ingredient concentration 0.25%, 4 h
51%: [4]; time elapsed 8 h
92%: [3]; after 21 days, Table 5, dicloromezotiaz 0.023%, fipronil 0.03%, imidacloprid 0.10%, chlorantraniliprole 0.05% solution in soil
78%: [4]; time elapsed 9 h
100%: [1]; active ingredient concentration 0.10%, 2 days | [1]; active ingredient concentration 0.10%, 3 days | [1]; active ingredient concentration 0.10%, 7 days | [1]; active ingredient concentration 0.25%, 6 h | [1]; active ingredient concentration 0.25%, 7 h | [1]; active ingredient concentration 0.25%, 1 day | [1]; active ingredient concentration 0.25%, 2 days | [1]; active ingredient concentration 0.25%, 3 days | [1]; active ingredient concentration 0.25%, 7 days | [1]; active ingredient concentration 0.5%, 5 h | [1]; active ingredient concentration 0.5%, 6 h | [1]; active ingredient concentration 0.5%, 7 h | [1]; active ingredient concentration 0.5%, 1 day | [1]; active ingredient concentration 0.5%, 2 days | [1]; active ingredient concentration 0.5%, 3 days | [1]; active ingredient concentration 0.5%, 7 days | [1]; active ingredient concentration 1%, 5 h | [1]; active ingredient concentration 1%, 6 h | [1]; active ingredient concentration 1%, 7 h | [1]; active ingredient concentration 1%, 1 day | [1]; active ingredient concentration 1%, 2 days | [1]; active ingredient concentration 1%, 3 days | [1]; active ingredient concentration 1%, 7 days | [2]; after 1 day, Table 3, dicloromezotiaz 0.023%, fipronil 0.03%, imidacloprid 0.10%, chlorantraniliprole 0.05% solution in soil | [2]; after 1 day, Table 4, dicloromezotiaz 0.023%, chlorfenapyr 0.11%, clothianidin 0.05%, dinotefuran 0.20%, thiamethoxam 0.10%, broflanilide 0.03% solution in soil | [2]; after 3 days, Table 3, dicloromezotiaz 0.023%, fipronil 0.03%, imidacloprid 0.10%, chlorantraniliprole 0.05% solution in soil | [2]; after 3 days, Table 4, dicloromezotiaz 0.023%, chlorfenapyr 0.11%, clothianidin 0.05%, dinotefuran 0.20%, thiamethoxam 0.10%, broflanilide 0.03% solution in soil | [2]; after 7 days, Table 3, dicloromezotiaz 0.023%, fipronil 0.03%, imidacloprid 0.10%, chlorantraniliprole 0.05% solution in soil | [2]; after 7 days, Table 4, dicloromezotiaz 0.023%, chlorfenapyr 0.11%, clothianidin 0.05%, dinotefuran 0.20%, thiamethoxam 0.10%, broflanilide 0.03% solution in soil | [2]; after 14 days, Table 3, dicloromezotiaz 0.023%, fipronil 0.03%, imidacloprid 0.10%, chlorantraniliprole 0.05% solution in soil | [2]; after 14 days, Table 4, dicloromezotiaz 0.023%, chlorfenapyr 0.11%, clothianidin 0.05%, dinotefuran 0.20%, thiamethoxam 0.10%, broflanilide 0.03% solution in soil | [2]; after 21 days, Table 3, dicloromezotiaz 0.023%, fipronil 0.03%, imidacloprid 0.10%, chlorantraniliprole 0.05% solution in soil | [2]; after 21 days, Table 4, dicloromezotiaz 0.023%, chlorfenapyr 0.11%, clothianidin 0.05%, dinotefuran 0.20%, thiamethoxam 0.10%, broflanilide 0.03% solution in soil | [4]; time elapsed 10 h
19%: [4]; time elapsed 6 h
40%: [1]; active ingredient concentration 0.10%, 6 h | [1]; active ingredient concentration 0.10%, 7 h
0%: [1]; active ingredient concentration 0.10%, 1 h | [1]; active ingredient concentration 0.10%, 2 h | [1]; active ingredient concentration 0.10%, 3 h | [1]; active ingredient concentration 0.25%, 1 h | [1]; active ingredient concentration 0.25%, 2 h | [1]; active ingredient concentration 0.5%, 1 h | [1]; active ingredient concentration 0.5%, 2 h | [1]; active ingredient concentration 1%, 1 h | [4]; time elapsed 1 h | [4]; time elapsed 2 h | [4]; time elapsed 3 h | [4]; time elapsed 4 h | [4]; time elapsed 5 h
91%: [3]; after 7 days, Table 5, dicloromezotiaz 0.023%, fipronil 0.03%, imidacloprid 0.10%, chlorantraniliprole 0.05% solution in soil | [3]; after 14 days, Table 5, dicloromezotiaz 0.023%, fipronil 0.03%, imidacloprid 0.10%, chlorantraniliprole 0.05% solution in soil
8.9%: [3]; after 1 day, Table 5, dicloromezotiaz 0.023%, fipronil 0.03%, imidacloprid 0.10%, chlorantraniliprole 0.05% solution in soil
